pEC50: −log10 of the molar value.

For this experiment, the target named is Ras-related C3 botulinum toxin substrate 1 (Mus musculus, UniProt P63001). Kind of experiment: inhibition of wildtype Rac1 nucleotide loading – biochemical, multiplex bead flow cytometry, dose response (AID 1340). A general note: In flow cytometry, cells or beads pass a laser one at a time.
Broadly, the pEC50 is the EC50 on a negative log10 scale, so that one unit is a factor of ten. Molecule `NC(=S)NNC1=c2cc(F)ccc2=NC1=O` [[(5-fluoro-2-oxoindol-3-yl)amino]thiourea] had a pEC50 of 5.46.
`CC(C)Oc1ccc(C=NNC(=O)c2ccc(N(Cc3ccccc3)S(C)(=O)=O)cc2)cc1` [4-[benzyl(mesyl)amino]-N-[(4-isopropoxybenzylidene)amino]benzamide] had a pEC50 of 5.29.
`COc1ccc(C(=O)CC=Nc2ccc(S(=O)(=O)Nc3nc(C)cc(C)n3)cc2)cc1OC` [4-[3-(3,4-Dimethoxy-phenyl)-3-oxo-propenylamino]-N-(4,6-dimethyl-pyrimidin-2-yl)-benzenesulfonamide] had a pEC50 of 5.51.
To `COCCn1c(=S)[nH]c2cc(C(=O)N3CCc4ccccc4C3)ccc2c1=O` [SMR000310652] belongs 6.22.
To `N#Cc1c(-c2ccccc2)nc(SCC(=O)Nc2ccccc2)[nH]c1=O` [2-[(5-cyano-4-oxo-6-phenyl-1H-pyrimidin-2-yl)thio]-N-phenylacetamide] belongs 5.45; to `N=C(N)NS(=O)(=O)c1ccc(NC(=S)NC(=O)c2ccc3c(c2)OCO3)cc1` [MLS000621545], 5.55; to `O=C(O)c1ccccc1OCc1ccccc1Br` [2-(2-bromobenzyl)oxybenzoic acid], 6.82.
`CC(C)C(NCc1c(Cl)cccc1Cl)C(=O)O` (configuration not stated) [2-[(2,6-dichlorobenzyl)amino]-3-methyl-butyric acid] had a pEC50 of 5.24.
In turn, `Cc1cc(C)cc(N=Cc2[nH]c3ccc(Br)c(Cl)c3c2O)c1` [(2Z)-5-bromo-4-chloro-2-[(3,5-dimethylanilino)methylidene]-1H-indol-3-one] had a pEC50 of 5.52.
The result for `O=C(O)c1ccccc1Sc1ncnc2sc3c(c12)CCC3` reads 5.91; that for `COc1ccc(Cl)cc1NCc1sc(C(=O)O)cc1C` [5-[(5-chloro-2-methoxy-anilino)methyl]-4-methyl-2-thenoic acid], 5.74; that for `O=C(O)c1ccc(COc2ccccc2Cl)o1` [5-[(2-chloranylphenoxy)methyl]furan-2-carboxylic acid], 4.58.
`Cc1ccc(C)c(OCCn2cc(C(=O)O)c3ccccc32)c1` [1-[2-(2,5-dimethylphenoxy)ethyl]-3-indolecarboxylic acid] gave a pEC50 of 6.10.
As for `Cc1cccc(-n2nc(CC#N)c(C#N)c2N)c1` [5-amino-3-(cyanomethyl)-1-(3-methylphenyl)-4-pyrazolecarbonitrile], the pEC50 was 4.55.
Regarding `O=C(Nc1nc(-c2ccc(S(=O)(=O)N3CCCC3)cc2)cs1)c1ccco1` [MLS000049286], the pEC50 was 5.75.
In turn, `CCOc1ccc(/C=C2\SC(N3CCc4ccccc4C3)=NC2=O)cc1` [(5Z)-2-(3,4-dihydro-1H-isoquinolin-2-yl)-5-(4-ethoxybenzylidene)-2-thiazolin-4-one] showed a pEC50 of 5.40.
`CCOC(=O)CN(C(=O)CSc1nnc2c(n1)[nH]c1ccc(OC)cc12)c1ccc(F)cc1` [ethyl 2-[(4-fluorophenyl)-[2-[(8-methoxy-5H-[1,2,4]triazino[5,6-b]indol-3-yl)sulfanyl]ethanoyl]amino]ethanoate] gave a pEC50 of 6.03.
`CC1(C)Cc2c(sc(NC(=S)NC(=O)c3ccccc3)c2C(=O)O)CO1` [2-(benzoylcarbamothioylamino)-5,5-dimethyl-4,7-dihydrothieno[2,3-c]pyran-3-carboxylic acid] showed a pEC50 of 7.09.
On to `Cc1cc(NC(=O)CSc2nc(O)c(C#N)c(-c3ccccc3)n2)no1` [2-[(5-cyano-4-oxidanylidene-6-phenyl-1H-pyrimidin-2-yl)sulfanyl]-N-(5-methyl-1,2-oxazol-3-yl)ethanamide], for which the pEC50 is 5.02.
The molecule `Cc1ccccc1C(=O)Nc1ccc2c(C#N)c3nc4ccccc4nc3n2c1` [MLS000591720] gave a pEC50 of 6.54.
The molecule `Cc1cc(C(=O)Oc2ccccc2C(=O)O)c(C)o1` [2-(2,5-dimethyl-3-furoyl)oxybenzoic acid] had a pEC50 of 6.99.
`O=C(C#Cc1ccccc1)c1cccc([N+](=O)[O-])c1` [1-(3-nitrophenyl)-3-phenyl-2-propyn-1-one] showed a pEC50 of 4.72.
The molecule `COc1cc(CN=Nc2nnc3c(n2)[nH]c2ccccc23)ccc1O` gave a pEC50 of 6.20.
Molecule `Cc1sc2nc3ccc(NCc4ccco4)nn3c(=O)c2c1C` [7-(2-furanylmethylamino)-2,3-dimethyl-4-thieno[1,2]pyrimido[4,5-b]pyridazinone] showed a pEC50 of 5.04.
Consider `O=C(O)/C=C/c1cn(Cc2ccccc2)nc1-c1cccs1` [(E)-3-(1-benzyl-3-thiophen-2-ylpyrazol-4-yl)prop-2-enoic acid], for which the pEC50 was 5.64.
The result for `CCCc1nc2c(=O)n(C)c(=O)nc-2n(C)n1` [1,6-dimethyl-3-propyl-pyrimido[5,4-e][1,2,4]triazine-5,7-dione] reads 6.21; that for `COc1cc(SC#N)ccc1N=Cc1c(C)[nH]n(-c2ccc(C)c(C)c2)c1=O` [[4-[[(Z)-[1-(3,4-dimethylphenyl)-3-methyl-5-oxidanylidene-pyrazol-4-ylidene]methyl]amino]-3-methoxy-phenyl] thiocyanate], 6.01; that for `O=C(O)c1ccccc1NCCc1ccc(Cl)cc1` [2-[2-(4-chlorophenyl)ethylamino]benzoic acid], 5.82.
Molecule `O=C(COc1ncnc2cc([N+](=O)[O-])ccc12)NCCc1ccc(Cl)cc1` [MLS000335629] showed a pEC50 of 5.27.
Take `COc1ccc(-c2nnc(SCC(=O)c3cccs3)o2)cc1` [2-[[5-(4-methoxyphenyl)-1,3,4-oxadiazol-2-yl]sulfanyl]-1-thiophen-2-yl-ethanone]: the pEC50 is 5.19.
Molecule `COc1cc(C=NNC(=O)c2sc(N)nc2C)cc(OC)c1OC` [2-amino-4-methyl-N-[(3,4,5-trimethoxyphenyl)methylideneamino]-5-thiazolecarboxamide] had a pEC50 of 5.78.
For the molecule `O=C(NC1CCCCC1)c1cc([N+](=O)[O-])n[nH]1` [MLS000559279], the pEC50 was 4.26.
To `CC(=O)c1c(C)[nH]c(C(=O)N2CCc3ccccc3C2)c1C` [1-[5-(3,4-dihydro-1H-isoquinolin-2-ylcarbonyl)-2,4-dimethyl-1H-pyrrol-3-yl]ethanone] belongs 5.29; to `O=C(O)/C=C/c1cn(Cc2ccccc2)nc1-c1ccc(Cl)cc1` [(E)-3-[1-benzyl-3-(4-chlorophenyl)pyrazol-4-yl]acrylic acid], 6.79.
To `Cc1cc(C(=O)Cn2nc(C(=O)O)c3ccccc3c2=O)c(C)n1-c1ccc(OC(F)F)cc1` [3-[2-[1-[4-(difluoromethoxy)phenyl]-2,5-dimethyl-3-pyrrolyl]-2-oxoethyl]-4-oxo-1-phthalazinecarboxylic acid] belongs 5.23; to `O=C(O)c1cn(CCOc2ccccc2)c2ccccc12` [1-(2-phenoxyethyl)-3-indolecarboxylic acid], 5.26.
The result for `O=C(O)c1ccccc1NCc1ccccc1Cl` [2-[(2-chlorobenzyl)amino]benzoic acid] reads 6.05; that for `CCn1nc(C(=O)OCC(=O)c2cc(C)n(Cc3cccs3)c2C)c2ccccc2c1=O` [3-ethyl-4-keto-phthalazine-1-carboxylic acid [2-[2,5-dimethyl-1-(2-thenyl)pyrrol-3-yl]-2-keto-ethyl] ester], 6.05.
`OC(CNCCc1ccc(Cl)cc1)COc1ccc2ccccc2c1` (configuration not stated) [1-[2-(4-chlorophenyl)ethylamino]-3-(2-naphthalenyloxy)-2-propanol] had a pEC50 of 5.14.
Turning to `CCOC(=O)c1nc(Nc2ccc(C(C)=O)cc2)c2ccccc2n1` [4-(4-acetylanilino)-2-quinazolinecarboxylic acid ethyl ester], the pEC50 is 5.47.
Regarding `CN1C(=O)N(C)c2ccc(C=O)c3cccc1c23` [1,3-dimethyl-2-oxidanylidene-perimidine-6-carbaldehyde], the pEC50 was 4.68.
Regarding `O=C1/C(=C\c2cccnc2)Sc2ccccc21` [(2E)-2-(3-pyridinylmethylidene)-1-benzothiophen-3-one], the pEC50 was 4.03.
The result for `O=C(NNC(=S)NCc1ccc(Cl)cc1)c1ccc(Br)o1` [1-[(5-bromanylfuran-2-yl)carbonylamino]-3-[(4-chlorophenyl)methyl]thiourea] reads 7.07; that for `Cc1cc(C)c(C)c(C(=O)c2ccccc2C(=O)O)c1C` [2-(2,3,5,6-tetramethylbenzoyl)benzoic acid], 5.65; that for `O=C(O)CCN1C(=O)/C(=C/c2ccc(-c3nc4ccccc4s3)o2)SC1=S` [3-[(5Z)-5-[[5-(1,3-benzothiazol-2-yl)furan-2-yl]methylidene]-4-oxo-2-sulfanylidene-1,3-thiazolidin-3-yl]propanoic acid], 6.01.
As to `CCN(CC)c1ccc2cc(-c3nc(-c4ccc(OC)cc4)cs3)c(=O)oc2c1` [7-(diethylamino)-3-[4-(4-methoxyphenyl)-1,3-thiazol-2-yl]chromen-2-one], the pEC50 was 6.43.
Take `COc1ccccc1NCc1sc(C(=O)O)cc1C` [4-methyl-5-(o-anisidinomethyl)-2-thenoic acid]: the pEC50 is 4.79.

The values are drawn from BindingDB's records for doi:10.7270/Q2377749 (Nmmlsc, 2010).
